Consider 2 compounds from US20080293699A1, “Inhibitors of thapsigargin-induced cell death” (priority 2007, published 2008).

One assay concerns CSM14.1 cells. Description: Pathway selectivity: cell death induced by VP16, TNF plus cycloheximide or staurosporine in CSM14.1 cells. To be noted: 25 μM, ATP content where stated. Type of assay: cell-based, rat. The procedure:
The selectivity of compounds with respect to suppression of cell death induced by ER stress was determined by treating undifferentiated CSM14.1 cells with a variety of agents that induce apoptosis via the ER stress pathway (thapsigargin, tunicamycin), the mitochondrial pathway (VP16) or the death receptor pathway (TNF+cycloheximide [CHX]). Of the 26 hit compounds tested, 19 reduced cell death induced by thapsigargin and tunicamycin but not VP16 or TNF/CHX.
For the experiments shown in FIG. 18, undifferentiated CSM 14.1 cells were plated at 3,000 cells per well in 96-well plates (for the ATP assay) or at 1×10^4 cells per well in 24-well plates (for flow cytometry). The next day, cells were treated with DMSO (0.5%) or hit compounds 25 μM of a compound with 0.5% DMSO final concentration) for two hours, followed by treatment with various cell death-inducing reagents, including 15 μM Thapsigargin (TG) for 24 hrs, 10 μg/mL tunicamycin (TU) for 72 hrs, 2.5 μM staurosporine (STS) for 24 hrs, 50 μM VP16 for 48 hrs, or 30 ng/mL TNF plus 10 μg/mL cyclohexamide (CHX) for 24 hrs. Cellular ATP content was measured for staurosporine samples and TNF/CHX samples, normalizing data relative to cells treated with DMSO alone (the control) and presenting as a percentage of control. For measuring cell death resulting from treatment with tunicamycin and VP16, flow cytometry was used. All assays were performed in triplicate (mean ±SD).

In assay [1] the test system is mouse neural stem cell C17.2. Description: Thapsigargin-induced death of C17.2 cells (undifferentiated and differentiated), ATP content assay. Type of assay: cell-based. The protocol: (§1) In addition to CSM14.1 cells, when tested at 25 μM, Compound 5962123 protected by >50% against thapsigargin-induced death of several tumor cell lines (HeLa human cervical cancer, SW1 melanoma cell, PPC1, human prostate cancer), mouse neural stem cell C17.2 (both differentiated [neuronal phenotype] and non-differentiated [stem cell phenotype]) as determined by ATP content assay, and primary rat cortical neurons as determined by microscopy assay measuring the percentage of NeuN-immunopositive cells with either normal or apoptotic nuclear morphology (Hoechst dye staining).
For PC12, cells were stimulated with 20 ng/ml NGF for five days; for C17.2, cells were stimulated with serum reduction, and 1% N2 incubation for three days; for CSM14.1, cells were cultured at 39° C. for 5-7 days.

In assay [2] the test system is primary rat cortical neurons. Description: Thapsigargin-induced death of primary cortical neurons, microscopy assay (NeuN, Hoechst). Format: cell-based. The procedure: as §1
Description of secondary screens. The secondary screens used to characterize compound 5962123 (many of which were used to characterize all 11 benzodiazepines) are outlined above. Thirty-one secondary screens have been used to date to characterize compound 5962123. […] Finally, compound 2878746 inhibits thapsigargin-induced cell death of rat primary cortical neurons (identified by staining with NeuN), as determined by counting apoptotic […] (NeuN)-positive cells stained with the DNA-binding fluorochrome Hoechst dye to identify cells with condensed nuclear morphology indicative of apoptosis and evidence of neurite retraction.

The subject of assay [3] is primary mouse neuronal cells. Nature of the assay: Thapsigargin-induced death of primary mouse neuronal cells, immunostaining and microscopy. Type of assay: cell-based. To be noted: 25 μM, two hours before thapsigargin for 24 hours. The protocol:
(§2) Primary cortical neuron cells were prepared from the […] of mice. After 14 days of maturation, the cells were preincubated with DMSO (0.2%) or 25 μM of compound 6239507 for two hours. The cells were then treated with thapsigargin (TG) for 24 hours. Cells were fixed with an aldehyde solution and subjected to immunostaining with NeuN and MAP2 antibody for staining the neuronal body and axon network. Hoechst dye was used to stain nuclei. To show the loss of the axon network by thapsigargin, a wide field was captured by fluorescent microscopy. Cells showing a condensed nucleus and shrunken neuritis were considered as dead to evaluate cell death.
as §2, with “Fluorescent microscopy was used to” for “To”, “thapsigargin.” for “thapsigargin, a wide field was captured by fluorescent microscopy.”

“Also recorded” adds a separate entry of the source.

Regarding `CCN(CC)c1ccc(C2Nc3ccccc3NC3=C2C(=O)CC(c2ccccc2)C3)cc1` (stereo not shown) [Compound 5962123, 6-(4-diethylaminophenyl)-9-phenyl-5,6,8,9,10,11-hexahydrobenzo[c][1,5]benzodiazepin-7-one], in the assay with CSM14.1 cells, the “Inhibition of cell death induced by TNF-α plus cycloheximide” value was “does not inhibit; also recorded: not active”, the “Inhibition of cell death induced by VP-16” value was “does not inhibit; also recorded: not active” and the “Inhibition of cell death induced by staurosporine” value is given as “does not inhibit; also recorded: not active”. In assay [1] (25 μM, ATP content assay), the “Activity in differentiated C17.2 cells treated with thapsigargin” value is recorded as “confirmed”. Besides, the “Protection against thapsigargin-induced death, C17.2” value in assay [1] (25 μM, both differentiated and non-differentiated, ATP content assay) was over 50%. For the same compound, the “Cytoprotective activity, C17.2 diff (Result)” value in assay [1] (differentiated, thapsigargin 10 μM, ATP content, compound ≦25 μM) was “+ (+indicates >50% rescue of cell viability relative to untreated cells not exposed to thapsigargin at compound concentration of ≦25 μM)”. For the same compound, the “Cytoprotective activity, C17.2 (Result)” value in assay [1] (undifferentiated, thapsigargin 10 μM, ATP content, compound ≦25 μM) is “+ (+indicates >50% rescue of cell viability relative to untreated cells not exposed to thapsigargin at compound concentration of ≦25 μM)”. Further, the “Protection against thapsigargin-induced death, primary rat cortical neurons” value in assay [2] (25 μM, microscopy, NeuN-immunopositive cells, Hoechst nuclear morphology) was over 50%. Besides, in assay [2] (counting apoptotic NeuN-positive cells, Hoechst dye), the “Inhibition of thapsigargin-induced cell death of rat primary cortical neurons” value was “inhibits”.
For the compound `COc1ccc(C2CC(=O)C3=C(C2)Nc2ccccc2NC3c2cccc(Oc3ccccc3)c2)cc1OC` (stereo not shown) [Compound 6239507], the “Inhibition of ER stress-induced cell death in primary mouse neuronal cells” value in assay [3] is “can inhibit”.
